Measured values taken from US12281122B1, “PI3K inhibitors” (Cogent Biosciences, Inc., priority 2023, dated 2025).
pIC50: −log10 of the molar value.

Tests used:
[1] = tested on: SKBR3 (PI3Kα-Wild Type) cell line; experiment: HTRF phospho-AKT(S473) cell assay in SKBR3 cells; type: cell-based, human
Outline: (§1)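 T47D: RPMI + 10% FBS + 0.2 units/mL insulin, top 5 μM. SKBR3: McCoy's 5A + 10% FBS, top 10 μM, 70 ng/ml PDGF-BB last 15 min. Both: 12-pt 1:3, 2 h, 37° C, max 0.5% DMSO; HTRF pAKT(S473); IC50.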

[2] = tested on: T47D (PI3Kα-H1047R) cell line; experiment: HTRF phospho-AKT(S473) cell assay in T47D cells; type: cell-based, human
Outline: as §1

[3] = Homo sapiens, SK-BR-3; HTRF phospho-AKT(S473), SKBR3 (PI3Kα-Wild Type) cells, 2 hours compound incubation, PDGF-BB stimulated
[4] = Homo sapiens; HTRF phospho-AKT(S473), T47D (PI3Kα-H1047R) cells, 2 hours compound incubation
[5] = Homo sapiens, SK-BR-3; SKBR3 (PI3Kα-Wild Type) cells, HTRF phospho-AKT(S473), 2 hours compound incubation, PDGF-BB stimulated
[6] = Homo sapiens; T47D (PI3Kα-H1047R) cells, HTRF phospho-AKT(S473), 2 hours compound incubation

Row | Structure (SMILES) | pIC50 [1, 3] | pIC50 [2, 4] | pIC50 [1, 5] | pIC50 [2, 6]
1 | Cc1cc([C@@H](C)Nc2ccc(Cl)nc2C(=O)NS(C)(=O)=O)c2nc(-c3ccc4c(cnn4CC(F)(F)F)c3)n(C)c(=O)c2c1 [Compound 783, (R)-6-chloro-3-((1-(3,6-dimethyl-4-oxo-2-(1-(2,2,2-trifluoroethyl)-1H-indazol-5-yl)-3,4-dihydroquinazolin-8-yl)ethyl)amino)-N-(methylsulfonyl) picolinamide] | 5.30 to 6.00 | > 6.60 | – | –
2 | Cc1cc([C@@H](C)Nc2ccc(Cl)nc2C(=O)NS(C)(=O)=O)c2nc(N3C[C@@H]4[C@H](C3)[C@H]4c3ccn(C(C)C)n3)n(C)c(=O)c2c1 [Compound 395, 6-chloro-3-(((R)-1-(2-((1R,5S,6R)-6-(1-isopropyl-1H-pyrazol-3-yl)-3-azabicyclo[3.1.0]hexan-3-yl)-3,6-dimethyl-4-oxo-3,4-dihydroquinazolin-8-yl)ethyl)amino)-N-(methylsulfonyl) picolinamide] | – | – | ≤ 5.30 | 6.30 to 6.60
3 | Cc1cc([C@@H](C)Nc2ccc(Cl)nc2C(=O)NS(C)(=O)=O)c2nc(N3C[C@H]4C[C@@H]3CN4c3cnc(C)c(F)c3)n(C)c(=O)c2c1 [Compound 664, 6-chloro-3-(((R)-1-(2-((1R,4R)-5-(5-fluoro-6-methylpyridin-3-yl)-2,5-diazabicyclo [2.2.1]heptan-2-yl)-3,6-dimethyl-4-oxo-3,4-dihydroquinazolin-8-yl)ethyl)amino)-N-(methylsulfonyl) picolinamide] | ≤ 5.30 | 6.00 to 6.30 | – | –
4 | Cc1cc([C@@H](C)Nc2ccc(Cl)nc2C(=O)NS(C)(=O)=O)c2nc(N3CCO[C@H](c4cnn(C)c4)C3)n(C)c(=O)c2c1 (relative stereo) [Compound 313, 6-chloro-3-(((R)-1-(3,6-dimethyl-2-((R*)-2-(1-methyl-1H-pyrazol-4-yl)morpholino)-4-oxo-3,4-dihydroquinazolin-8-yl)ethyl)amino)-N-(methylsulfonyl) picolinamide] | – | – | 5.30 to 6.00 | 6.30 to 6.60
5 | Cc1cc([C@@H](C)Nc2ccc(Cl)nc2C(=O)NS(C)(=O)=O)c2nc(N3Cc4cn(-c5ccc(C#N)cc5C)nc4C3)n(C)c(=O)c2c1 [Compound 250, (R)-6-chloro-3-((1-(2-(2-(4-cyano-2-methylphenyl)-2,6-dihydropyrrolo[3,4-c]pyrazol-5(4H)-yl)-3,6-dimethyl-4-oxo-3,4-dihydroquinazolin-8-yl)ethyl)amino)-N-(methylsulfonyl) picolinamide] | – | – | 5.30 to 6.00 | > 6.60
6 | Cc1cc([C@@H](C)Nc2ccc(Cl)nc2C(=O)NS(C)(=O)=O)c2nc(N3C[C@@H]4C[C@H]3C[C@@H]4c3nn(C)cc3F)n(C)c(=O)c2c1 (relative stereo) [Compound 444, 6-chloro-3-(((R)-1-(2-((1R*,4S*,5R*)-5-(4-fluoro-1-methyl-1H-pyrazol-3-yl)-2-azabicyclo[2.2.1]heptan-2-yl)-3,6-dimethyl-4-oxo-3,4-dihydroquinazolin-8-yl)ethyl)amino)-N-(methylsulfonyl) picolinamide] | ≤ 5.30 | 6.30 to 6.60 | – | –
7 | Cc1cc([C@@H](C)Nc2ccc(Cl)nc2C(=O)NS(C)(=O)=O)c2nc(N3C[C@@H]4C[C@H]3CN4c3cnc(C)cn3)n(C)c(=O)c2c1 [Compound 591, 6-chloro-3-(((R)-1-(3,6-dimethyl-2-((1S,4S)-5-(5-methylpyrazin-2-yl)-2,5diazabicyclo [2.2.1]heptan-2-yl)-4-oxo-3,4-dihydroquinazolin-8-yl)ethyl)amino)-N-(methylsulfonyl) picolinamide] | ≤ 5.30 | 6.30 to 6.60 | – | –
8 | Cc1cc([C@@H](C)Nc2ccc(Cl)nc2C(=O)NS(C)(=O)=O)c2nc(N3C[C@@H]4[C@H](C3)[C@H]4c3ccnc(N(C)C)c3)n(C)c(=O)c2c1 [Compound 745, 6-chloro-3-(((R)-1-(2-((1R,5S,6S)-6-(2-(dimethylamino)pyridin-4-yl)-3-azabicyclo[3.1.0]hexan-3-yl)-3,6-dimethyl-4-oxo-3,4-dihydroquinazolin-8-yl)ethyl)amino)-N-(methylsulfonyl) picolinamide] | ≤ 5.30 | 6.30 to 6.60 | – | –
9 | Cc1cc([C@@H](C)Nc2ccc(Cl)nc2C(=O)NS(C)(=O)=O)c2nc(N3CC[C@H](Nc4ncc(Cl)cn4)C3)n(C)c(=O)c2c1 [Compound 738, 6-chloro-3-(((R)-1-(2-((S)-3-((5-chloropyrimidin-2-yl)amino)pyrrolidin-1-yl)-3,6-dimethyl-4-oxo-3,4-dihydroquinazolin-8-yl)ethyl)amino)-N-(methylsulfonyl) picolinamide] | ≤ 5.30 | 6.30 to 6.60 | – | –
10 | Cc1cc([C@@H](C)Nc2ccc(Cl)nc2C(=O)NS(C)(=O)=O)c2nc(N3C[C@@H]4[C@H](C3)[C@H]4c3cc(C)n(C)n3)n(C)c(=O)c2c1 [Compound 435, 6-chloro-3-(((R)-1-(2-((1R,5S,6R)-6-(1,5-dimethyl-1H-pyrazol-3-yl)-3-azabicyclo[3.1.0]hexan-3-yl)-3,6-dimethyl-4-oxo-3,4-dihydroquinazolin-8-yl)ethyl)amino)-N-(methylsulfonyl) picolinamide] | – | – | 5.30 to 6.00 | > 6.60
11 | Cc1cc([C@@H](C)Nc2ccc(Cl)nc2C(=O)NS(C)(=O)=O)c2nc(N3C[C@@H]4[C@H](C3)[C@H]4c3ccc(N(C)C)nc3)n(C)c(=O)c2c1 [Compound 393, 6-chloro-3-(((R)-1-(2-((1R,5S,6S)-6-(6-(dimethylamino)pyridin-3-yl)-3-azabicyclo[3.1.0]hexan-3-yl)-3,6-dimethyl-4-oxo-3,4-dihydroquinazolin-8-yl)ethyl)amino)-N-(methylsulfonyl) picolinamide] | – | – | ≤ 5.30 | 6.30 to 6.60
12 | CCn1c(N2C[C@@H]3[C@H](C2)[C@H]3c2cnc(C)cn2)nc2c([C@@H](C)Nc3ccc(Cl)nc3C(=O)NS(C)(=O)=O)cc(C)cc2c1=O [Compound 572, 6-chloro-3-(((R)-1-(3-ethyl-6-methyl-2-((1R,5S,6R)-6-(5-methylpyrazin-2-yl)-3-azabicyclo[3.1.0]hexan-3-yl)-4-oxo-3,4-dihydroquinazolin-8-yl)ethyl)amino)-N-(methylsulfonyl) picolinamide] | 5.30 to 6.00 | > 6.60 | – | –
13 | Cc1cc([C@@H](C)Nc2ccc(Cl)nc2C(=O)NS(C)(=O)=O)c2nc(N3CCC(c4ncc(C)o4)CC3)n(C)c(=O)c2c1 [Compound 728, (R)-6-chloro-3-((1-(3,6-dimethyl-2-(4-(5-methyloxazol-2-yl)piperidin-1-yl)-4-oxo-3,4-dihydroquinazolin-8-yl)ethyl)amino)-N-(methylsulfonyl) picolinamide] | 5.30 to 6.00 | 6.30 to 6.60 | – | –
14 | C[C@@H](Nc1ccc(Cl)nc1C(=O)NS(C)(=O)=O)c1cc(F)cc2c(=O)n(C)c(N3CC[C@@H](Oc4cnn(C)c4)C3)nc12 [Compound 560, 6-chloro-3-(((R)-1-(6-fluoro-3-methyl-2-((R)-3-((1-methyl-1H-pyrazol-4-yl)oxy)pyrrolidin-1-yl)-4-oxo-3,4-dihydroquinazolin-8-yl)ethyl)amino)-N-(methylsulfonyl) picolinamide] | 5.30 to 6.00 | > 6.60 | – | –
15 | Cc1cnc(C2CCN(c3nc4c([C@@H](C)Nc5ccc(Cl)nc5C(=O)NS(C)(=O)=O)cc(C)cc4c(=O)n3C)CC2)nc1 [Compound 404, (R)-6-chloro-3-((1-(3,6-dimethyl-2-(4-(5-methylpyrimidin-2-yl)piperidin-1-yl)-4-oxo-3,4-dihydroquinazolin-8-yl)ethyl)amino)-N-(methylsulfonyl) picolinamide] | – | – | 5.30 to 6.00 | > 6.60
16 | Cc1cc([C@@H](C)Nc2ccc(Cl)nc2C(=O)NS(C)(=O)=O)c2nc(N3CCC(c4ncc(C5CC5)cn4)CC3)n(C)c(=O)c2c1 [Compound 509, (R)-6-chloro-3-((1-(2-(4-(5-cyclopropylpyrimidin-2-yl)piperidin-1-yl)-3,6-dimethyl-4-oxo-3,4-dihydroquinazolin-8-yl)ethyl)amino)-N-(methylsulfonyl) picolinamide] | ≤ 5.30 | 6.30 to 6.60 | – | –
17 | Cc1cc([C@@H](C)Nc2ccc(Cl)nc2C(=O)NS(C)(=O)=O)c2nc(-c3ccc4nn(CC(F)(F)F)cc4c3)n(C)c(=O)c2c1 [Compound 784, (R)-6-chloro-3-((1-(3,6-dimethyl-4-oxo-2-(2-(2,2,2-trifluoroethyl)-2H-indazol-5-yl)-3,4-dihydroquinazolin-8-yl)ethyl)amino)-N-(methylsulfonyl) picolinamide] | 5.30 to 6.00 | > 6.60 | – | –
18 | Cc1cc([C@@H](C)Nc2ccc(Cl)nc2C(=O)NS(C)(=O)=O)c2nc(N3C[C@@H]4C[C@H]3CN4c3ccn(C)n3)n(C)c(=O)c2c1 [Compound 228, 6-chloro-3-(((R)-1-(3,6-dimethyl-2-((1S,4S)-5-(1-methyl-1H-pyrazol-3-yl)-2,5-diazabicyclo[2.2.1]heptan-2-yl)-4-oxo-3,4-dihydroquinazolin-8-yl)ethyl)amino)-N-(methylsulfonyl) picolinamide] | – | – | 5.30 to 6.00 | > 6.60
19 | Cc1cc([C@@H](C)Nc2ccc(Cl)nc2C(=O)NS(C)(=O)=O)c2nc(N3CCN(c4nn(C)cc4F)CC3)n(C)c(=O)c2c1 [Compound 450, (R)-6-chloro-3-((1-(2-(4-(4-fluoro-1-methyl-1H-pyrazol-3-yl)piperazin-1-yl)-3,6-dimethyl-4-oxo-3,4-dihydroquinazolin-8-yl)ethyl)amino)-N-(methylsulfonyl) picolinamide] | ≤ 5.30 | > 6.60 | – | –
